{"source": "ChEMBL document CHEMBL3525909", "about": "“Metabolism of LY654322, a growth hormone secretagogue, to an unusual diimidazopyridine metabolite” (Drug Metab Dispos, 2011)", "key": {"[1]": {"assay": "Plasma clearance in Fischer 344 rat at 3 mg/kg, iv", "assay_type": "ADME, organism-based", "design": "dose 3 mg/kg, route intravenous"}, "Liver [2]": {"system": "Liver", "assay": "Drug metabolism in rat liver slices assessed as (2R,2'R)-2,2'-(diimidazo[4,5-b:4',5'-e]pyridine-1,7-diyl)bis(2-(4-fluorophenyl)-1-(pyrrolidin-1-yl)propan-1-one) formation at 50 uM after 24 hrs", "assay_type": "ADME, tissue-based"}, "[3]": {"assay": "Oral bioavailability in Fischer 344 rat at 30 mg/kg", "assay_type": "ADME, organism-based", "settings": "in vivo"}, "Liver [4]": {"system": "Liver", "assay": "Drug metabolism in dog liver slices assessed as (2R,2'R)-2,2'-(diimidazo[4,5-b:4',5'-e]pyridine-1,7-diyl)bis(2-(4-fluorophenyl)-1-(pyrrolidin-1-yl)propan-1-one) formation at 50 uM after 24 hrs", "assay_type": "ADME, tissue-based, Canis lupus familiaris"}, "[5]": {"assay": "Terminal half life in beagle dog at 1 mg/kg, iv", "assay_type": "ADME, organism-based, Canis lupus familiaris", "design": "dose 1 mg/kg, route intravenous", "settings": "in vivo, read-out: beta t1/2 (converted)"}, "[6]": {"assay": "Terminal half life in Fischer 344 rat at 3 mg/kg, iv", "assay_type": "ADME, organism-based", "design": "dose 3 mg/kg, route intravenous", "settings": "in vivo, read-out: beta t1/2 (converted)"}, "[7]": {"assay": "Drug excretion in Fischer 344 rat urine assessed as (2R,2'R)-2,2'-(diimidazo[4,5-b:4',5'-e]pyridine-1,7-diyl)bis(2-(4-fluorophenyl)-1-(pyrrolidin-1-yl)propan-1-one) formation at 3 mg/kg, iv and 30 mg/kg, po by LC-MS analysis", "assay_type": "ADME, organism-based", "settings": "in vivo"}, "[8]": {"assay": "Oral bioavailability in beagle dog at 3 mg/kg", "assay_type": "ADME, organism-based, Canis lupus familiaris", "settings": "in vivo"}, "[9]": {"assay": "Drug metabolism in human hepatocytes assessed as (2R,2'R)-2,2'-(diimidazo[4,5-b:4',5'-e]pyridine-1,7-diyl)bis(2-(4-fluorophenyl)-1-(pyrrolidin-1-yl)propan-1-one) formation at 50 uM after 4 hrs", "assay_type": "ADME, cell-based, Hepatocyte"}, "[10]": {"assay": "Drug excretion in Fischer 344 rat urine assessed as (R)-2-(4-amino-1H-imidazol-1-yl)-2-(4-fluorophenyl)-1-(pyrrolidin-1-yl)propan-1-one formation at 3 mg/kg, iv and 30 mg/kg, po by LC-MS analysis", "assay_type": "ADME, organism-based", "settings": "in vivo"}, "Plasma [11]": {"system": "Plasma", "assay": "Drug metabolism in beagle dog plasma assessed as (R)-2-(4-amino-1H-imidazol-1-yl)-2-(4-fluorophenyl)-1-(pyrrolidin-1-yl)propan-1-one formation at 1 mg/kg, iv by LC-MS analysis", "assay_type": "ADME, organism-based, Canis lupus familiaris", "design": "dose 1 mg/kg, route intravenous", "settings": "in vivo"}, "[12]": {"assay": "Plasma clearance in beagle dog at 1 mg/kg, iv", "assay_type": "ADME, organism-based, Canis lupus familiaris", "design": "dose 1 mg/kg, route intravenous"}, "[13]": {"assay": "Drug excretion in Fischer 344 rat urine assessed as (2R,2'R)-2,2'-(diimidazo[4,5-b:4',5'-e]pyridine-1,7-diyl)bis(2-(4-fluorophenyl)-1-(pyrrolidin-1-yl)propan-1-one) formation at 3 mg/kg, iv and 30 mg/kg, po by LC-UV spectrophotometry", "assay_type": "ADME, organism-based", "settings": "in vivo"}, "[14]": {"assay": "Drug excretion in beagle dog urine assessed as (2R,2'R)-2,2'-(diimidazo[4,5-b:4',5'-e]pyridine-1,7-diyl)bis(2-(4-fluorophenyl)-1-(pyrrolidin-1-yl)propan-1-one) formation at 20 mg/kg, po by LC-MS analysis", "assay_type": "ADME, organism-based, Canis lupus familiaris", "design": "dose 20 mg/kg, route oral", "settings": "in vivo"}, "Plasma [15]": {"system": "Plasma", "assay": "Drug metabolism in Fischer 344 rat plasma assessed as (R)-2-(2-amino-2-methylpropanamido)-5-phenylpentanoic acid formation at 3 mg/kg, iv by LC-MS analysis", "assay_type": "ADME, organism-based", "design": "dose 3 mg/kg, route intravenous", "settings": "in vivo"}, "Plasma [16]": {"system": "Plasma", "assay": "Drug metabolism in Fischer 344 rat plasma assessed as (R)-2-(4-amino-1H-imidazol-1-yl)-2-(4-fluorophenyl)-1-(pyrrolidin-1-yl)propan-1-one formation at 3 mg/kg, iv by LC-MS analysis", "assay_type": "ADME, organism-based", "design": "dose 3 mg/kg, route intravenous", "settings": "in vivo"}, "[17]": {"assay": "Drug excretion in beagle dog urine assessed as (R)-2-(4-amino-1H-imidazol-1-yl)-2-(4-fluorophenyl)-1-(pyrrolidin-1-yl)propan-1-one formation at 20 mg/kg, po by LC-MS analysis", "assay_type": "ADME, organism-based, Canis lupus familiaris", "design": "dose 20 mg/kg, route oral", "settings": "in vivo"}, "[18]": {"assay": "Drug level in Fischer 344 rat urine treated with 2-Methylalanyl-N-{1-[(1R)-1-(4-fluorophenyl)-1-methyl-2-oxo-2-pyrrolidin-1-ylethyl]-1H-imidazol-4-yl}-5-phenyl-D-norvalinamide at 3 mg/kg, iv and 30 mg/kg, po by LC-MS analysis", "assay_type": "ADME, organism-based", "settings": "in vivo"}, "Plasma [19]": {"system": "Plasma", "assay": "Drug level in beagle dog plasma treated with 2-Methylalanyl-N-{1-[(1R)-1-(4-fluorophenyl)-1-methyl-2-oxo-2-pyrrolidin-1-ylethyl]-1H-imidazol-4-yl}-5-phenyl-D-norvalinamide at 1 mg/kg, iv by LC-MS/MS analysis", "assay_type": "ADME, organism-based, Canis lupus familiaris", "design": "dose 1 mg/kg, route intravenous", "settings": "in vivo"}, "Plasma [20]": {"system": "Plasma", "assay": "Drug level in Fischer 344 rat plasma treated with 2-Methylalanyl-N-{1-[(1R)-1-(4-fluorophenyl)-1-methyl-2-oxo-2-pyrrolidin-1-ylethyl]-1H-imidazol-4-yl}-5-phenyl-D-norvalinamide at 3 mg/kg, iv by LC-MS/MS analysis", "assay_type": "ADME, organism-based", "design": "dose 3 mg/kg, route intravenous", "settings": "in vivo"}, "[21]": {"assay": "Drug level in beagle dog urine treated with 2-Methylalanyl-N-{1-[(1R)-1-(4-fluorophenyl)-1-methyl-2-oxo-2-pyrrolidin-1-ylethyl]-1H-imidazol-4-yl}-5-phenyl-D-norvalinamide at 20 mg/kg, po by LC-MS analysis", "assay_type": "ADME, organism-based, Canis lupus familiaris", "design": "dose 20 mg/kg, route oral", "settings": "in vivo"}, "[22]": {"assay": "Drug level in Fischer 344 rat urine treated with 2-Methylalanyl-N-{1-[(1R)-1-(4-fluorophenyl)-1-methyl-2-oxo-2-pyrrolidin-1-ylethyl]-1H-imidazol-4-yl}-5-phenyl-D-norvalinamide at 3 mg/kg, iv and 30 mg/kg, po by LC-UV spectrophotometry", "assay_type": "ADME, organism-based", "settings": "in vivo"}}, "data": [{"smiles": "CC(C)(N)C(=O)N[C@H](CCCc1ccccc1)C(=O)Nc1cn([C@@](C)(C(=O)N2CCCC2)c2ccc(F)cc2)cn1", "values": [{"measurement": "clearance", "setting": "[1]", "value": 75, "unit": "mL/min/kg"}, {"measurement": "Drug metabolism", "setting": "Liver [2]", "value": "metabolite_not_detected"}, {"measurement": "bioavailability", "setting": "[3]", "value": 74, "unit": "%"}, {"measurement": "Drug metabolism", "setting": "Liver [4]", "value": "metabolite_not_detected"}, {"measurement": "half-life", "setting": "[5]", "value": 5, "unit": "h"}, {"measurement": "half-life", "setting": "[6]", "value": 2, "unit": "h"}, {"measurement": "Drug excretion", "setting": "[7]", "value": "metabolite_detected"}, {"measurement": "bioavailability", "setting": "[8]", "value": 33, "unit": "%"}, {"measurement": "Drug metabolism", "setting": "[9]", "value": "metabolite_not_detected"}, {"measurement": "Drug excretion", "setting": "[10]", "value": "metabolite_detected"}, {"measurement": "Drug metabolism", "setting": "Plasma [11]", "value": "metabolite_detected"}, {"measurement": "clearance", "setting": "[12]", "value": 33, "unit": "mL/min/kg"}, {"measurement": "Drug excretion", "setting": "[13]", "value": "metabolite_detected"}, {"measurement": "Drug excretion", "setting": "[14]", "value": "metabolite_detected"}, {"measurement": "Drug metabolism", "setting": "Plasma [15]", "value": "metabolite_detected"}, {"measurement": "Drug metabolism", "setting": "Plasma [16]", "value": "metabolite_detected"}, {"measurement": "Drug excretion", "setting": "[17]", "value": "metabolite_detected"}]}, {"smiles": "C[C@](C(=O)N1CCCC1)(c1ccc(F)cc1)n1cnc(N)c1", "values": [{"measurement": "Drug excretion", "setting": "[18]", "value": "metabolite_detected"}, {"measurement": "Drug metabolism", "setting": "Plasma [19]", "value": "metabolite_detected"}, {"measurement": "Drug metabolism", "setting": "Plasma [20]", "value": "metabolite_detected"}, {"measurement": "Drug excretion", "setting": "[21]", "value": "metabolite_detected"}]}, {"smiles": "CC(C)(N)C(=O)N[C@H](CCCc1ccccc1)C(=O)O", "values": [{"measurement": "Drug metabolism", "setting": "Plasma [20]", "value": "metabolite_detected"}]}, {"smiles": "C[C@](C(=O)N1CCCC1)(c1ccc(F)cc1)n1cnc2nc3ncn([C@@](C)(C(=O)N4CCCC4)c4ccc(F)cc4)c3cc21", "values": [{"measurement": "Drug excretion", "setting": "[18]", "value": "metabolite_detected"}, {"measurement": "Drug excretion", "setting": "[22]", "value": "metabolite_detected"}, {"measurement": "Drug excretion", "setting": "[21]", "value": "metabolite_detected"}]}]}
